# According to patent US8889854B2, “C-17 bicyclic amines of triterpenoids with HIV maturation inhibitory activity” (priority 2012, dated 2014):
# Test system: recombinant NL4-3 virus (Renilla luciferase in nef, Gag P373S; NLRluc)
# Experiment: HIV Cell Culture Assay (luciferase reporter virus in MT-2 cells)
# Format: cell-based
# Conditions: MT-2 cells infected for 4-5 days with NLRluc recombinants; luciferase activity
# Experimental: MT-2 cells and 293T cells were obtained from the NIH AIDS Research and Reference Reagent Program. MT-2 cells were propagated in RPMI 1640 media supplemented with 10% heat inactivated fetal bovine serum, […]. The 293T cells were propagated in DMEM media supplemented with 10% heat inactivated fetal bovine serum (FBS), 100 units/mL penicillin G and 100 μg/mL streptomycin. The proviral DNA clone of NL4-3 was obtained from the NIH AIDS Research and Reference Reagent Program. A recombinant NL4-3 virus, in which a section of the nef gene from NL4-3 was replaced with the Renilla luciferase gene, was used as a reference virus. In addition, residue Gag P373 was converted to P373S. Briefly, the recombinant virus was prepared by transfection of the altered proviral clone of NL4-3. Transfections were performed in 293T cells using LipofectAMINE PLUS from Invitrogen (Carlsbad, Calif.), according to manufacturer's instruction. The virus was titered in MT-2 cells using luciferase enzyme activity as a marker. Luciferase was quantitated using the Dual Luciferase kit from Promega (Madison, Wis.), with modifications to the manufacturer's protocol. The diluted Passive Lysis solution was pre-mixed with the re-suspended Luciferase Assay Reagent and the re-suspended Stop & Glo Substrate (2:1:1 ratio). Fifty (50) μL of the mixture was added to each aspirated well on assay plates and luciferase activity was measured immediately on a Wallac TriLux (Perkin-Elmer). Antiviral activities of inhibitors toward the recombinant virus were quantified by measuring luciferase activity in cells infected for 4-5 days with NLRluc recombinants in the presence serial dilutions of the inhibitor. Table 1 is the key for the data in Table 2.
row,SMILES,EC50
1,"C=C(C)[C@@H]1CC[C@]2(NCCN3C[C@@H]4C[C@H]3CO4)CC[C@]3(C)[C@H](CC[C@@H]4[C@@]5(C)CC=C(C6=CC7C(C6)C7C(=O)O)C(C)(C)[C@@H]5CC[C@]43C)[C@@H]12 (single isomer, unassigned) [Example B7]",2.28 nM

# Same assay, conditions: MT-2 cells infected for 4-5 days with NLRluc recombinants; luciferase activity; reported as group A/B
row,SMILES,EC50
1,"C=C(C)[C@@H]1CC[C@]2(NCCN3C[C@H]4C[C@@H]3CS4(=O)=O)CC[C@]3(C)[C@H](CC[C@@H]4[C@@]5(C)CC=C(C6=CC7C(C6)C7C(=O)O)C(C)(C)[C@@H]5CC[C@]43C)[C@@H]12 (single isomer, unassigned) [Example B5]",< 100 nM

# Same assay, conditions: Renilla, NL43, MT-2 cells infected for 4-5 days with NLRluc recombinants; luciferase activity
row,SMILES,EC50
1,"C=C(C)[C@@H]1CC[C@]2(NCCN3C[C@@H]4C[C@H]3CO4)CC[C@]3(C)[C@H](CC[C@@H]4[C@@]5(C)CC=C(C6=CC7C(C6)C7C(=O)O)C(C)(C)[C@@H]5CC[C@]43C)[C@@H]12 (single isomer, unassigned) [Example B6]",1.42 nM
2,"C=C(C)[C@@H]1CC[C@]2(NC(=O)CN3C[C@@H]4CC[C@H]3C4)CC[C@]3(C)[C@H](CC[C@@H]4[C@@]5(C)CC=C(c6ccc(C(=O)O)cc6)C(C)(C)[C@@H]5CC[C@]43C)[C@@H]12 [Example 1, 4-((1R,3aS,5aR,5bR,7aR,11aS,11bR,13aR,13bR)-3a-(2-((1S,4R)-2-azabicyclo[2.2.1]heptan-2-yl)acetamido)-5a,5b,8,8,11a-pentamethyl-1-(prop-1-en-2-yl)-2,3,3a,4,5,5a,5b,6,7,7a,8,11,11a,11b,12,13,13a,13b-octadecahydro-1H-cyclopenta[a]chrysen-9-yl)benzoic acid]",3.65 nM
3,"C=C(C)[C@@H]1CC[C@]2(NC(=O)CN3C[C@@H]4C[C@H]3CS4(=O)=O)CC[C@]3(C)[C@H](CC[C@@H]4[C@@]5(C)CC=C(c6ccc(C(=O)O)cc6)C(C)(C)[C@@H]5CC[C@]43C)[C@@H]12 [Example 2, 4-((1R,3aS,5aR,5bR,7aR,11aS,11bR,13aR,13bR)-3a-(2-((1S,4S)-2,2-dioxido-2-thia-5-azabicyclo[2.2.1]heptan-5-yl)acetamido)-5a,5b,8,8,11a-pentamethyl-1-(prop-1-en-2-yl)-2,3,3a,4,5,5a,5b,6,7,7a,8,11,11a,11b,12,13,13a,13b-octadecahydro-1H-cyclopenta[a]chrysen-9-yl)benzoic acid]",1.93 nM
4,"C=C(C)[C@@H]1CC[C@]2(NCCN3C[C@@H]4C[C@H]3CN4Cc3ccccc3)CC[C@]3(C)[C@H](CC[C@@H]4[C@@]5(C)CC=C(c6ccc(C(=O)O)cc6)C(C)(C)[C@@H]5CC[C@]43C)[C@@H]12 [Example 9, 4-((1R,3aS,5aR,5bR,7aR,11aS,11bR,13aR,13bR)-3a-((2-((1S,4S)-5-benzyl-2,5-diazabicyclo[2.2.1]heptan-2-yl)ethyl)amino)-5a,5b,8,8,11a-pentamethyl-1-(prop-1-en-2-yl)-2,3,3a,4,5,5a,5b,6,7,7a,8,11,11a,11b,12,13,13a,13b-octadecahydro-1H-cyclopenta[a]chrysen-9-yl)benzoic acid]",6.09 nM
5,"C=C(C)[C@@H]1CC[C@]2(NCCN3C[C@@H]4C[C@H]3CN4)CC[C@]3(C)[C@H](CC[C@@H]4[C@@]5(C)CC=C(c6ccc(C(=O)O)cc6)C(C)(C)[C@@H]5CC[C@]43C)[C@@H]12 [Example 10, 4-((1R,3aS,5aR,5bR,7aR,11aS,11bR,13aR,13bR)-3a-((2-((1S,4S)-2,5-diazabicyclo[2.2.1]heptan-2-yl)ethyl)amino)-5a,5b,8,8,11a-pentamethyl-1-(prop-1-en-2-yl)-2,3,3a,4,5,5a,5b,6,7,7a,8,11,11a,11b,12,13,13a,13b-octadecahydro-1H-cyclopenta[a]chrysen-9-yl)benzoic acid]",1.21 nM

# Same assay, conditions: Renilla, NL43, MT-2 cells infected for 4-5 days with NLRluc recombinants; luciferase activity; reported as group A/B
row,SMILES,EC50
1,"C=C(C)[C@@H]1CC[C@]2(NCCN3C[C@H]4C[C@@H]3CS4(=O)=O)CC[C@]3(C)[C@H](CC[C@@H]4[C@@]5(C)CC=C(C6=CC7C(C6)C7C(=O)O)C(C)(C)[C@@H]5CC[C@]43C)[C@@H]12 (single isomer, unassigned) [Example B4]",< 100 nM
2,"C=C(C)[C@@H]1CC[C@]2(NC(=O)CN3C[C@@H]4C[C@H]3CN4Cc3ccccc3)CC[C@]3(C)[C@H](CC[C@@H]4[C@@]5(C)CC=C(c6ccc(C(=O)O)cc6)C(C)(C)[C@@H]5CC[C@]43C)[C@@H]12 [Example 3, 4-((1R,3aS,5aR,5bR,7aR,11aS,11bR,13aR,13bR)-3a-(2-((1S,4S)-5-benzyl-2,5-diazabicyclo[2.2.1]heptan-2-yl)acetamido)-5a,5b,8,8,11a-pentamethyl-1-(prop-1-en-2-yl)-2,3,3a,4,5,5a,5b,6,7,7a,8,11,11a,11b,12,13,13a,13b-octadecahydro-1H-cyclopenta[a]chrysen-9-yl)benzoic acid]",< 100 nM
3,"CC(C)[C@@H]1CC[C@]2(NC(=O)CN3C[C@@H]4C[C@H]3CS4(=O)=O)CC[C@]3(C)[C@H](CC[C@@H]4[C@@]5(C)CC=C(c6ccc(C(=O)O)cc6)C(C)(C)[C@@H]5CC[C@]43C)[C@@H]12 [Example 4, 4-((1S,3aS,5aR,5bR,7aR,11aS,11bR,13aR,13bR)-3a-(2-((1S,4S)-2,2-dioxido-2-thia-5-azabicyclo[2.2.1]heptan-5-yl)acetamido)-1-isopropyl-5a,5b,8,8,11a-pentamethyl-2,3,3a,4,5,5a,5b,6,7,7a,8,11,11a,11b,12,13,13a,13b-octadecahydro-1H-cyclopenta[a]chrysen-9-yl)benzoic acid]",< 100 nM
4,"C=C(C)[C@@H]1CC[C@]2(NCCN3C[C@@H]4C[C@H]3CS4(=O)=O)CC[C@]3(C)[C@H](CC[C@@H]4[C@@]5(C)CC=C(c6ccc(C(=O)O)cc6)C(C)(C)[C@@H]5CC[C@]43C)[C@@H]12 [Example 5, 4-((1R,3aS,5aR,5bR,7aR,11aS,11bR,13aR,13bR)-3a-((2-((1S,4S)-2,2-dioxido-2-thia-5-azabicyclo[2.2.1]heptan-5-yl)ethyl)amino)-5a,5b,8,8,11a-pentamethyl-1-(prop-1-en-2-yl)-2,3,3a,4,5,5a,5b,6,7,7a,8,11,11a,11b,12,13,13a,13b-octadecahydro-1H-cyclopenta[a]chrysen-9-yl)benzoic acid]",< 100 nM
5,"C=C(C)[C@@H]1CC[C@]2(N(CCO)CCN3C[C@@H]4C[C@H]3CS4(=O)=O)CC[C@]3(C)[C@H](CC[C@@H]4[C@@]5(C)CC=C(c6ccc(C(=O)O)cc6)C(C)(C)[C@@H]5CC[C@]43C)[C@@H]12 [Example 6, 4-((1R,3aS,5aR,5bR,7aR,11aS,11bR,13aR,13bR)-3a-((2-((1S,4S)-2,2-dioxido-2-thia-5-azabicyclo[2.2.1]heptan-5-yl)ethyl)(2-hydroxyethyl)amino)-5a,5b,8,8,11a-pentamethyl-1-(prop-1-en-2-yl)-2,3,3a,4,5,5a,5b,6,7,7a,8,11,11a,11b,12,13,13a,13b-octadecahydro-1H-cyclopenta[a]chrysen-9-yl)benzoic acid]",< 100 nM
6,"C=C(C)[C@@H]1CC[C@]2(NCCN3C[C@@H]4C[C@H]3CO4)CC[C@]3(C)[C@H](CC[C@@H]4[C@@]5(C)CC=C(c6ccc(C(=O)O)cc6)C(C)(C)[C@@H]5CC[C@]43C)[C@@H]12 [Example 7, 4-((1R,3aS,5aR,5bR,7aR,11aS,11bR,13aR,13bR)-3a-((2-((1S,4S)-2-oxa-5-azabicyclo[2.2.1]heptan-5-yl)ethyl)amino)-5a,5b,8,8,11a-pentamethyl-1-(prop-1-en-2-yl)-2,3,3a,4,5,5a,5b,6,7,7a,8,11,11a,11b,12,13,13a,13b-octadecahydro-1H-cyclopenta[a]chrysen-9-yl)benzoic acid]",< 100 nM
7,"CC(C)[C@@H]1CC[C@]2(NCCN3C[C@@H]4C[C@H]3CO4)CC[C@]3(C)[C@H](CC[C@@H]4[C@@]5(C)CC=C(c6ccc(C(=O)O)cc6)C(C)(C)[C@@H]5CC[C@]43C)[C@@H]12 [Example 8, 4-((1S,3aS,5aR,5bR,7aR,11aS,11bR,13aR,13bR)-3a-((2-((1S,4S)-2-oxa-5-azabicyclo[2.2.1]heptan-5-yl)ethyl)amino)-1-isopropyl-5a,5b,8,8,11a-pentamethyl-2,3,3a,4,5,5a,5b,6,7,7a,8,11,11a,11b,12,13,13a,13b-octadecahydro-1H-cyclopenta[a]chrysen-9-yl)benzoic acid]",< 100 nM
